This is an account of results in paper PMC9268414, “Screening an In-House Isoquinoline Alkaloids Library for New Blockers of Voltage-Gated Na^+ Channels Using Voltage Sensor Fluorescent Probes: Hits and Biases” (Molecules, 2022).

Like-named read-outs stand apart in the source and are kept apart here.

For experiment [1], the system named is NaV channels endogenously expressed in GH3b6 cells. Kind of experiment: FRET voltage sensor probe (VSP) assay of BTX-induced depolarization in GH3b6 cells. The format is cell-based, rat. As to conditions: GH3b6 cells; for Inhibitory Effects (%) on BTX-induced VSP signal (screening): IA at 10–50 µg/mL co-incubated with 1 µM BTX; for Maximum of Inhibition of BTX-evoked VSP signal / IC50: BTX 1 µM, n = 6; for Maximum of Inhibition of BTX-evoked VSP signal: % printed only; for IC50: read-out: IC50 (µM), inhibition of BTX-evoked VSP signal.

For a further experiment, the target named is T1, hNaV1.6 channel (Homo sapiens, UniProt Q9UQD0).
T1 construct: expressed in transfected cells
T1 sequence (Q9UQD0 whole entry): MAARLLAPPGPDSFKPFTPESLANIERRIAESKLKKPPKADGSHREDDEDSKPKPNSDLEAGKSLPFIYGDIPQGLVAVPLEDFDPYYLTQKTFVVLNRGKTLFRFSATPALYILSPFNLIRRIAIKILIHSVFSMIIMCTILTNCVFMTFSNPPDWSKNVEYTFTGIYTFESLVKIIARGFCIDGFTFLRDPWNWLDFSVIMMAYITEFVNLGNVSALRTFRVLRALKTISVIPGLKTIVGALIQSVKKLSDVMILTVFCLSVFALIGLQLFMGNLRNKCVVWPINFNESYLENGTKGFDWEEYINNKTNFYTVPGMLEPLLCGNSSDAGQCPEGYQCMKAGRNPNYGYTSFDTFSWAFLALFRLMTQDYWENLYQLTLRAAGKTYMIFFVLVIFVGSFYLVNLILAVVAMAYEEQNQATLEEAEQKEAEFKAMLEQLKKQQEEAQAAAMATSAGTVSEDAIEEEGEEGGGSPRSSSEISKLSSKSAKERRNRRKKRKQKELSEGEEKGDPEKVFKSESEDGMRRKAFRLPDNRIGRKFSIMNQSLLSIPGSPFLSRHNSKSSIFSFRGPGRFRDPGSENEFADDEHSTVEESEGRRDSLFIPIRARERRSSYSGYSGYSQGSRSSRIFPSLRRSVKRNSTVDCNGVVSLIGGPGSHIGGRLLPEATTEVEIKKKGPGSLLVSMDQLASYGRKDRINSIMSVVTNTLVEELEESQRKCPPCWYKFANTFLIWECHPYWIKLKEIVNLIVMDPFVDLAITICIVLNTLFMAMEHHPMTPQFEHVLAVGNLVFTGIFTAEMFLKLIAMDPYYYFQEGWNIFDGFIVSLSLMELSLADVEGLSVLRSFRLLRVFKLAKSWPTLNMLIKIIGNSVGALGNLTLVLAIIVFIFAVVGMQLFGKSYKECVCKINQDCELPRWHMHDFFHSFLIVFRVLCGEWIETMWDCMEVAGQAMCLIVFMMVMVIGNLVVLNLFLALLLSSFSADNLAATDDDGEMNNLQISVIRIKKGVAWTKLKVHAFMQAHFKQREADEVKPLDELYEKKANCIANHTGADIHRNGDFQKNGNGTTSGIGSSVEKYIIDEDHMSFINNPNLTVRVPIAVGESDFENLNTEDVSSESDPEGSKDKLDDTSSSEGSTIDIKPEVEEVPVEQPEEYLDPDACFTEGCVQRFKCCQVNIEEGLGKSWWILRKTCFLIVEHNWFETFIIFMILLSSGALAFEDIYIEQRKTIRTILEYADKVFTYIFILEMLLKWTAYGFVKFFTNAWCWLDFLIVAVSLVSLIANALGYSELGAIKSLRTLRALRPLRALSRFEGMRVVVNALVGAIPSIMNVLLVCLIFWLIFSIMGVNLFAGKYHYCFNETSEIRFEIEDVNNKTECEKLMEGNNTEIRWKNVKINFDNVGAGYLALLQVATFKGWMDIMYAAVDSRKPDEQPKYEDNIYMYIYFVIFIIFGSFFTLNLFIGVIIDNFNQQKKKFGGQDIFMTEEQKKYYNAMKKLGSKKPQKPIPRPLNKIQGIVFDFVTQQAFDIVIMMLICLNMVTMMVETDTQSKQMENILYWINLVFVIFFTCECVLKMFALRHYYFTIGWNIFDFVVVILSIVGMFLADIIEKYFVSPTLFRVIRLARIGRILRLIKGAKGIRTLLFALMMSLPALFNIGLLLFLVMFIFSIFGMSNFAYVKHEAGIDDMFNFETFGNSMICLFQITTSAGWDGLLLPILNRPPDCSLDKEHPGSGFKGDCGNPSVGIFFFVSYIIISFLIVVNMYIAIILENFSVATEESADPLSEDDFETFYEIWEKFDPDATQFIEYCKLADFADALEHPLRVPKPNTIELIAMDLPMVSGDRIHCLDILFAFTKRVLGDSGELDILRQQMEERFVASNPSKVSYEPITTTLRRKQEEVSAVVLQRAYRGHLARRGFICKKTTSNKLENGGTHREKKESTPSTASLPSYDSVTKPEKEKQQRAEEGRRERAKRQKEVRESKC
As to the kind of experiment: Automated patch-clamp, Na+ currents in HEK293-hNaV1.6 cells. It counts as cell-based. As to conditions: 10 µM; for Effect on Na+ currents elicited by hNaV1.6: HEK293-hNaV1.6; for Change in V1/2 of activation and inactivation vs control: hNaV1.6. The procedure:
(§1) GH3b6 cells are a subclone of the GH3 pituitary cell line and were a generous gift from Dr. Françoise Macari (IGF, Montpellier, France). GH3b6 cells were cultivated from passage 14 until passage 32 at 37 °C/5% CO2 in Dubelcco’s Modified Eagle Medium (DMEM)/F12 (Lonza, Basel, Switzerland), supplemented with 10% FBS (Lonza, Basel, Switzerland), 1 mM L-glutamine, and 1 mM penicillin and streptomycin solution. For the fluorescence assay, the GH3b6 cells were seeded in black-walled, clear-bottom, 96-well, tissue culture-treated, and sterile imaging plates (Corning Hazebrouck, France), at a density of 10,000 cells per well, and incubated for 24 h before starting the experiment. The human Nav1.3 (hNav1.3) channel-expressing cell line (HEK293) used in this work was a generous gift from Massimo Mantegazza (IPMC, Nice, France). HEK293-hNaV1.3 cells were cultivated from passage 20 until passage 35 at 37 °C/5% CO2 in a DMEM high glucose medium (4.5 g/l), supplemented with 10% FBS, pyruvate, L-glutamine, and penicillin and streptomycin solution, each one at 1 mM, completed with 800 µg/mL geneticin G418. For the fluorescence assays, the cells were plated at a density of 50,000 cells per well in black-walled, clear-bottom, 96-well plates and then cultured at 37 °C and 5% CO2 for 24 h before the experiments. HEK293 stably expressing hNaV1.2 and hNaV1.6 were cultivated in the same conditions mentioned above for the HEK293-hNaV1.3 cells. For the automated patch-clamp experiments, cells were passaged from 24 to 48 h prior to the experiment and replated in the appropriate quantity to reach 50–70% confluence. For electrophysiological recordings, cells were detached with trypsin-EDTA and diluted in a culture medium. Then, the cells were centrifuged at 800 rpm for 4 min and resuspended (~300,000 cells/mL) in a patch-clamp extracellular solution.
(§2) Whole-cell recordings were used to investigate the effects of oxostephanine, liriodenine, thalmiculine, bebeerine, and protopine on HEK293 cells stably expressing the hNav1.2, hNav1.3, and hNav1.6 channels. Automated patch-clamp recordings were performed using the SyncroPatch 384PE from Nanion (München, Germany). Chips with a single hole (n = 384, series resistance 3.93 ± 1.19 MΩ) were used for HEK293 cell recordings. Pulse generation and data collection were performed with the PatchControl384 v1.9.7 software (Nanion) and the Biomek interface (Beckman Coulter). Whole-cell recordings were conducted according to the recommended procedures of Nanion. The cells were stored in a cell hotel reservoir at 10 °C, with a shaking speed of 60 RPM. After initiating the experiment, cell catch, sealing, whole-cell formation, liquid application, recording, and data acquisition were all performed sequentially and automatically. The intracellular solution contained (in mM): 10 CsCl, 110 CsF, 10 NaCl, 10 EGTA, and 10 HEPES (pH 7.2, osmolarity 280 mOsm), and the extracellular solution contained (in mM): 60 NMDG, 80 NaCl, 4 KCl, 2 CaCl2, 1 MgCl2, 5 Glucose, and 10 HEPES (pH 7.4 (NaOH), osmolarity 280 ± 3 mOsm). Whole-cell experiments were performed at a holding potential of −100 mV at room temperature (18–22 °C). Currents were sampled at 20 kHz. For pharmacological assays, alkaloid solutions were prepared at 30 µM in the extracellular solution supplemented with 0.3% bovine serum albumin and distributed in 384-well compound plates according to a pre-established plate plan. This distribution within compound plates could not be randomized since it would then excessively complexify the methods of analyses. The working compound solution was diluted 3 times in the patch-clamp recording well by adding from 30 to 60 µL of the external solution to reach the final reported concentration and the test volume of 90 µL. The effects of IA (10 µM) or of BTX (1 µM) were measured at the end of a 10 min application time. Activation curves were built by depolarizations lasting for 2000 ms, from −130 mV to 40 mV, using 5 mV increment steps. […]

The next experiment concerns the target human NaV1.3 channel (Homo sapiens, UniProt Q9NY46). As to the kind of experiment: ANG-2 intracellular Na+ fluorescent assay in HEK293-hNaV1.3 cells. It counts as cell-based. As to conditions: IA at 10 µM, BTX 3 µM, HEK293-hNaV1.3.
A further experiment deals with T2, hNaV1.2 channel (Homo sapiens, UniProt Q99250).
T2 construct: expressed in transfected cells
As to the kind of experiment: Automated patch-clamp, Na+ currents in HEK293-hNaV1.2 cells. The note with it: 10 µM; for Effect on Na+ currents elicited by hNaV1.2: HEK293-hNaV1.2; for Change in V1/2 of activation and inactivation vs control: hNaV1.2. The format is cell-based. The procedure: as §1, §2

The next experiment deals with T3, hNaV1.3 channel (Homo sapiens, UniProt Q9NY46).
T3 construct: expressed in transfected cells
T3 sequence (Q9NY46 whole entry): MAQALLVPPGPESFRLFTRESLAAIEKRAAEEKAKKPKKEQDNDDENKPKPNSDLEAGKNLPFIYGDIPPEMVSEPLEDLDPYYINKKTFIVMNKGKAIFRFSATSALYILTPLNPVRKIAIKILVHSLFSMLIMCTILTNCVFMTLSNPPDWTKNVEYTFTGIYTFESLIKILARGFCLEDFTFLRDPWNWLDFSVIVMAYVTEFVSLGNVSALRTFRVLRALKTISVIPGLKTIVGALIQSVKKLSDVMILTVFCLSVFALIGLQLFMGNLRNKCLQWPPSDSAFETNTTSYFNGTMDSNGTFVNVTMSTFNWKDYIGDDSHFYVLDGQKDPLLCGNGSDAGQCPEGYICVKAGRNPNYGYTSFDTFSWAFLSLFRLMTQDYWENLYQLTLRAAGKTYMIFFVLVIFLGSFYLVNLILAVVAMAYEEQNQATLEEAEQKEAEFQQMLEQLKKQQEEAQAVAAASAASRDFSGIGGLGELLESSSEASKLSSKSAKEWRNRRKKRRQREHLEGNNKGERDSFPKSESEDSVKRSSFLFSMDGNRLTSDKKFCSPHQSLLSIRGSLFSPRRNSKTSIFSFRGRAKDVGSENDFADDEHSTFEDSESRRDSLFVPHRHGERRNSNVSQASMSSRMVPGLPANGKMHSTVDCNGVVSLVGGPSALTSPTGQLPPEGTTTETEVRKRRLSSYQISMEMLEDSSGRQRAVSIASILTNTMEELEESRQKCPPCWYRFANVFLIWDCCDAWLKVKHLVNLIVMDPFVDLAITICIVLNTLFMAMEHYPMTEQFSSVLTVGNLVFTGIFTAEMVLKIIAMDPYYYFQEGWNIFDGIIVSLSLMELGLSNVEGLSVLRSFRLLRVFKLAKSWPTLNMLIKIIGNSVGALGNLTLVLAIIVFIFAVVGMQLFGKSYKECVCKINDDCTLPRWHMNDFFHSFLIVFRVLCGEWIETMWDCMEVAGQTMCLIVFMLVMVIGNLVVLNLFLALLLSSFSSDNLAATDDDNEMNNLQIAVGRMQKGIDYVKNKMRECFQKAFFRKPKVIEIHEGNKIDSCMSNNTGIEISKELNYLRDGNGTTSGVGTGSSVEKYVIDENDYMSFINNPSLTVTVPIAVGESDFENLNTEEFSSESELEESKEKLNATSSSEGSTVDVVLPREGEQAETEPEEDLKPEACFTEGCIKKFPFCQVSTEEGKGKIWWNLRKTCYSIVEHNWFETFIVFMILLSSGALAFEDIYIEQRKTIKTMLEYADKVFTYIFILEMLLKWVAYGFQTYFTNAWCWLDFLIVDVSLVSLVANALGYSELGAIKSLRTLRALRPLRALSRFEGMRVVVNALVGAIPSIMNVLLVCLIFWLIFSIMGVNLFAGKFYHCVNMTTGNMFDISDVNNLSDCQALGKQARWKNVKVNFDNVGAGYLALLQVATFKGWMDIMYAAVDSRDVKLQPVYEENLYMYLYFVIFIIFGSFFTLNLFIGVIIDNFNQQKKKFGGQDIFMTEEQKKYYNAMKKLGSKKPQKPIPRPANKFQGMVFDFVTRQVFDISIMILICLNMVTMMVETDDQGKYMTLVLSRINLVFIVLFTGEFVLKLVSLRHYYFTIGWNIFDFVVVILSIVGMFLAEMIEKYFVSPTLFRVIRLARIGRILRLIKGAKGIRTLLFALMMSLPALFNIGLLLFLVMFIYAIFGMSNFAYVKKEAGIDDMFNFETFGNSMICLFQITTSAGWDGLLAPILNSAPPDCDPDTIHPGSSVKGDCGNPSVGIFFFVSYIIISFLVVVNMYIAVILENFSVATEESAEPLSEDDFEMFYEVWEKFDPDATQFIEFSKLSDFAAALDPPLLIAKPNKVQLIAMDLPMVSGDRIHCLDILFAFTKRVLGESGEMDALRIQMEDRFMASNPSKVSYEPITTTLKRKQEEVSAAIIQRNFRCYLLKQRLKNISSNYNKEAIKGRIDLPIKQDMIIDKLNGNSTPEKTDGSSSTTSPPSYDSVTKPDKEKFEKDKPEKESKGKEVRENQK
As to the kind of experiment: Automated patch-clamp, Na+ currents in HEK293-hNaV1.3 cells. It counts as cell-based. The note with it: for Effect on Na+ currents elicited by hNaV1.3 / Change in V1/2 of activation and inactivation vs control: 10 µM; for Effect on Na+ currents elicited by hNaV1.3: HEK293-hNaV1.3, without BTX. The method, then: as §1, §2

Chain of human NaV1.3 channel (Q9NY46 whole entry): as above

Take `COc1ccc2c(c1OC)C(O)C1c3c(cc4c(c3-2)OCO4)CCN1C` (stereo not drawn) [IA36, sukhodianine]: the “Inhibitory Effects (%) on BTX-induced VSP signal (screening)” value (shortened to “Inhibitory Effects (%)”) in experiment [1] is on record as 92.2%.
As for protopine [IA69], in experiment [1], the “Maximum of Inhibition of BTX-evoked VSP signal” value is given as 64.67 ± 5.50%, the IC50 is 3.97 ± 0.1 µM and the “Inhibitory Effects (%)” value is listed as 99.9%. Besides, at hNaV1.6 channel, the “Effect on Na+ currents elicited by hNaV1.6” value is listed as “no effects”; the “Change in V1/2 of activation and inactivation vs control” value (shortened to “Change”) was “ns”. Also, the “Inhibition of BTX-induced [Na+]i elevation (ANG-2 signal)” value on human NaV1.3 channel is listed as “no significant inhibitory effects”. For the same molecule, on hNaV1.2 channel, the “Effect on Na+ currents elicited by hNaV1.2” value is listed as “no effects”; the “Change” value is reported as “ns”. Further, the “Effect on Na+ currents elicited by hNaV1.3” value at hNaV1.3 channel is “no effects”. The “Change” value on hNaV1.3 channel (hNaV1.3) is on record as “ns”.
For `COc1cccc2c1C(=O)c1nccc3cc4c(c-2c13)OCO4` [IA14, oxostephanine], in experiment [1], the “Maximum of Inhibition of BTX-evoked VSP signal” value was 95.78 ± 6.99%, the half-inhibitory concentration (IC50) was determined as 6.11 ± 0.09 µM and the “Inhibitory Effects (%)” value came out at 84.4%. The IC50 in experiment [1] (listed as Oxostephanine) was 5 to 6 µM. In experiment [1] (listed as IA24), the “Inhibitory Effects (%)” value was 80.5%. At hNaV1.6 channel, the “Effect on Na+ currents elicited by hNaV1.6” value is listed as “no effects”; the “Change” value is given as “ns”. At human NaV1.3 channel (read-out: Inhibition of BTX-induced [Na+]i elevation (ANG-2 signal)), the inhibition at 10 µM was found to be 43 ± 12%. In addition, at hNaV1.2 channel, the “Effect on Na+ currents elicited by hNaV1.2” value is “no effects”; the “Change” value is “ns”. The “Effect on current densities of hNaV1.3 at −60 mV” value at hNaV1.3 channel (10 µM IA in the presence of 1 µM BTX) is “significantly decreased”. Also, the “Effect on slow-down of inactivation induced by BTX (AUC)” value on hNaV1.3 channel (10 µM IA, BTX 1 µM, hNaV1.3) was “significantly decreased”. For the same molecule, on hNaV1.3 channel, the “Effect on Na+ currents elicited by hNaV1.3” value is “no effects”. The “Change” value at hNaV1.3 channel (hNaV1.3) is given as “ns”.
As to `COc1ccc2cc1Oc1ccc(cc1)C[C@H]1c3cc(c(OC)cc3CCN1C)Oc1c(OC)c(OC)cc3c1[C@H](C2)N(C)CC3` [IA50, tetrandine], the “Inhibitory Effects (%)” value in experiment [1] is reported as 78.3%.
On to gyrocarpusine [IA42], for which the “Inhibitory Effects (%)” value in experiment [1] came out at 78.5%.
